# Results taken from US20160017312A1, “METHOD FOR MODULATING A BACTERIAL INVASION SWITCH” (priority 2012, published 2016).
# Test system: S. meliloti cells
# Experiment: Whole cell motility (swimming colonies) with added calcium
# Type: cell-based, Sinorhizobium meliloti
# Details: 1 mM Ca; protease active, non-swimming S. meliloti cells
# Procedure: Example 2. In no calcium or low calcium condition, most of ExoRm is in the monomeric form sensitive to protease digestion. Adding 1 mM or more Ca will turn ExoRm into dimeric form, preventing protease from binding and digesting ExoRm. So Ca is an indirect inhibitor of the protease. […] This is a typical indirect inhibitor. In the same fashion, most ions are indirect inhibitors of ExoRm protease.
# Example 1. Whole cell motility assay: The whole cell motility assay is based on the fact that inhibition of the protease lead to ExoRm increase and the cell becoming motile. The initial condition may be set with either low pH or low ion concentration, so that S. meliloti cells will form non-swimming colonies. The putative direct or indirect inhibitors can be mixed with S. meliloti cells in soft agar plates. The ones that can make S. meliloti cells to form swimming colonies are the potential direct or indirect inhibitors.
# Bacterial cell motility was examined using swarming plates containing 0.3% agar as described previously with some modifications. Briefly, fresh cell cultures were prepared and diluted to OD600 of 0.1. Then 2 μL of each diluted culture was inoculated into LB/MC soft agar plate and incubated for 2-3 days to determine colony size.
compound,measurement,value
[Ca+2] [Ca],effect on swimming of S. meliloti cells,"turn protease active, non-swimming S. meliloti cells into swimming cells"
